Legend:
human orexin-2 receptor [1] = biological target: T1, human orexin-2 receptor (Homo sapiens (Human), UniProt O43614); test: radioligand binding assay, orexin-2 receptor; details: membranes prepared from CHO cells expressing the OX2 receptor; read-out: hOX2R BIND hKi
Procedure: (§1) In a typical experiment the OX1 and OX2 receptor antagonistic activity of the compounds of the present invention was determined in accordance with the following experimental method. For intracellular calcium measurements, Chinese hamster ovary (CHO) cells expressing the rat orexin-1 receptor or the human orexin-2 receptor, are grown in Iscove's modified DMEM containing 2 mM L-glutamine, […], 1% hypoxanthine-thymidine supplement, 100 U/ml penicillin, 100 μg/ml streptomycin and 10% heat-inactivated fetal calf serum (FCS). The cells are seeded at 20,000 cells/well into Becton-Dickinson black 384-well clear bottom sterile plates coated with poly-D-lysine. All reagents were from GIBCO-Invitrogen Corp. The seeded plates are incubated overnight at 37° C. and 5% CO2. Ala-6,12 human orexin-A as the agonist is prepared as a 1 mM stock solution in 1% bovine serum albumin (BSA) and diluted in assay buffer (HBSS containing 20 mM HEPES, 0.1% BSA and 2.5 mM probenecid, pH7.4) for use in the assay at a final concentration of 70 pM. Test compounds are prepared as 10 mM stock solution in DMSO, then diluted in 384-well plates, first in DMSO, then assay buffer. On the day of the assay, cells are washed 3 times with 100 μl assay buffer and then incubated for 60 min (37° C., 5% CO2) in 60 μl assay buffer containing 1 μM Fluo-4AM ester, 0.02% pluronic acid, and 1% BSA. The dye loading solution is then aspirated and cells are washed 3 times with 100 μl assay buffer. 30 μl of that same buffer is left in each well. Within the Fluorescent Imaging Plate Reader (FLIPR, Molecular Devices), test compounds are added to the plate in a volume of 25 μl, incubated for 5 min and finally 25 μl of agonist is added. Fluorescence is measured for each well at 1 second intervals for 5 minutes and the height of each fluorescence peak is compared to the height of the fluorescence peak induced by 70 pM Ala-6,12 orexin-A with buffer in place of antagonist. […] Alternatively, compound potency can be assessed by a radioligand binding assay (described in Bergman et. al. Bioorg. Med. Chem. Lett. 2008, 18, 1425-1430) in which the inhibition constant (Ki) is determined in membranes prepared from CHO cells expressing either the OX1 or OX2 receptor. The intrinsic orexin receptor antagonist activity of a compound which may be used in the present invention may be determined by these assays.

human orexin-2 receptor [2] = biological target: T1, human orexin-2 receptor; test: FLIPR Ca2+ Flux Assay, orexin-2 receptor; format: cell-based; details: CHO cells expressing the human orexin-2 receptor; agonist 70 pM Ala-6,12 human orexin-A; read-out: hOX2R FLIPR IC50
Procedure: as §1

rat orexin-1 receptor = rat orexin-1 receptor (Rattus norvegicus (Rat), UniProt P56718); test: FLIPR Ca2+ Flux Assay, orexin-1 receptor; format: cell-based; details: CHO cells expressing the rat orexin-1 receptor; agonist 70 pM Ala-6,12 human orexin-A; read-out: hOX1R FLIPR IC50
Sequence of rat orexin-1 receptor (P56718 whole entry): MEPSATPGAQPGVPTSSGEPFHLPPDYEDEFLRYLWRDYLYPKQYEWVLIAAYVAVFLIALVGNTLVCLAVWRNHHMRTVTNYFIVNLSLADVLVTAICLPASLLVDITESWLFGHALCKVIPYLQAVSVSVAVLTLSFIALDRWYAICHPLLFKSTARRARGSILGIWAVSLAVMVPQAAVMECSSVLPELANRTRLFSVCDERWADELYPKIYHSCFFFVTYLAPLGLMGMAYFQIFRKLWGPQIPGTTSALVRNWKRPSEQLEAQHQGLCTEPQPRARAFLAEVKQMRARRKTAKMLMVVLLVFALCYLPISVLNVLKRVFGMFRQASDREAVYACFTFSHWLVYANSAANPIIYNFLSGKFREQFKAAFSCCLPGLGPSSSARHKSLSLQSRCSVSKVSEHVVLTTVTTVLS
Procedure: as §1

T1 sequence (O43614 whole entry): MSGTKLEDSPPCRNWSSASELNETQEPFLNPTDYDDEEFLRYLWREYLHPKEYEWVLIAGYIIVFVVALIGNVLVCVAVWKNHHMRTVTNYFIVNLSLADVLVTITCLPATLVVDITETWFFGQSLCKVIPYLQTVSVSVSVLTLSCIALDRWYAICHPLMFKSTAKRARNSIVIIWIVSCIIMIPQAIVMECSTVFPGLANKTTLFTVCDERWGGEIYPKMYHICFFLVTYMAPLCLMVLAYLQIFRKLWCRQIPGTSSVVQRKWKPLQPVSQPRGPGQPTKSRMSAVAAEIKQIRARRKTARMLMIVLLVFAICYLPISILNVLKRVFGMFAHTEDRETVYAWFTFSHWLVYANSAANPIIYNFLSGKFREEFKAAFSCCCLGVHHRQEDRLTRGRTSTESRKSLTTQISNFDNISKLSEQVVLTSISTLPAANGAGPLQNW

SMILES	Ki (human orexin-2 receptor [1]) [µM]	IC50 (human orexin-2 receptor [2]) [µM]	IC50 (rat orexin-1 receptor) [µM]
Cc1c(C#N)ccnc1O[C@@H]1CC[C@@H](C)N(C(=O)c2ccccc2Oc2ccccc2)C1 [Example 30, 3-methyl-2-({(3R,6R)-6-methyl-1-[(2-phenoxyphenyl)carbonyl]piperidin-3-yl}oxy)pyridine-4-carbonitrile]	0.0023	0.046	> 10
Cc1c(C#N)ccnc1O[C@@H]1CC[C@@H](C)N(C(=O)c2ccsc2-c2cscn2)C1 [Example 31, 3-methyl-2-{[(3R,6R)-6-methyl-1-{[2-(1,3-thiazol-4-yl)thiophen-3-yl]carbonyl}piperidin-3-yl]oxy}pyridine-4-carbonitrile]	0.0008	0.011	2.03
Cc1c(C#N)ccnc1O[C@@H]1CC[C@@H](C)N(C(=O)c2ccsc2-c2nccs2)C1 [Example 32, 3-methyl-2-{[(3R,6R)-6-methyl-1-{[2-(1,3-thiazol-2-yl)thiophen-3-yl]carbonyl}piperidin-3-yl]oxy}pyridine-4-carbonitrile]	0.0007	0.029	1.88
Cc1c(C#N)ccnc1O[C@@H]1CC[C@@H](C)N(C(=O)c2ccc(F)cc2-c2nccs2)C1 [Example 34, 2-{[(3R,6R)-1-{[4-fluoro-2-(1,3-thiazol-2-yl)phenyl]carbonyl}-6-methylpiperidin-3-yl]oxy}-3-methylpyridine-4-carbonitrile]	0.0002	0.009	0.702
Cc1c(C#N)ccnc1O[C@@H]1CC[C@@H](C)N(C(=O)c2cc(F)cnc2-c2nccs2)C1 [Example 35, 2-{[(3R,6R)-1-{[5-fluoro-2-(1,3-thiazol-2-yl)pyridin-3-yl]carbonyl}-6-methylpiperidin-3-yl]oxy}-3-methylpyridine-4-carbonitrile]	0.0003	0.013	0.453
Cc1c(C#N)ccnc1O[C@@H]1CC[C@@H](C)N(C(=O)c2ccccc2-c2cnn(C)c2)C1 [Example 36, 3-methyl-2-{[(3R,6R)-6-methyl-1-{[2-(1-methyl-1H-pyrazol-4-yl)phenyl]carbonyl}piperidin-3-yl]oxy}pyridine-4-carbonitrile]	0.0015	0.02	2.38
Cc1c(C#N)ccnc1O[C@@H]1CC[C@@H](C)N(C(=O)c2sccc2-c2nccs2)C1 [Example 37, 3-methyl-2-{[(3R,6R)-6-methyl-1-{[3-(1,3-thiazol-2-yl)thiophen-2-yl]carbonyl}piperidin-3-yl]oxy}pyridine-4-carbonitrile]	0.0012	0.011	2.27
Cc1c(C#N)ccnc1O[C@@H]1CC[C@@H](C)N(C(=O)c2sccc2-c2cscn2)C1 [Example 38, 3-methyl-2-{[(3R,6R)-6-methyl-1-{[3-(1,3-thiazol-4-yl)thiophen-2-yl]carbonyl}piperidin-3-yl]oxy}pyridine-4-carbonitrile]	0.0009	0.011	1.64
Cc1c(C#N)ccnc1O[C@@H]1CC[C@@H](C)N(C(=O)c2ccsc2-n2nccn2)C1 [Example 39, 3-methyl-2-{[(3R,6R)-6-methyl-1-{[2-(2H-1,2,3-triazol-2-yl)thiophen-3-yl]carbonyl}piperidin-3-yl]oxy}pyridine-4-carbonitrile]	0.0007	0.009	1.51
Cc1nnn(-c2ccccc2C(=O)N2C[C@H](Oc3nccc(C#N)c3C)CC[C@H]2C)n1 [Example 40, 3-methyl-2-{[(3R,6R)-6-methyl-1-{[2-(5-methyl-2H-tetrazol-2-yl)phenyl]carbonyl}piperidin-3-yl]oxy}pyridine-4-carbonitrile]	0.0006	0.011	0.707
Cc1nc(C(=O)N2C[C@H](Oc3nccc(C#N)c3C)CC[C@H]2C)c(-c2ccc(F)cc2)s1 [Example 41, 2-{[(3R,6R)-1-{[5-(4-fluorophenyl)-2-methyl-1,3-thiazol-4-yl]carbonyl}-6-methylpiperidin-3-yl]oxy}-3-methylpyridine-4-carbonitrile]	0.0046	0.048	1.2
Cc1nc(-c2ccccc2C(=O)N2C[C@H](Oc3nccc(C#N)c3C)CC[C@H]2C)no1 [Example 42, 3-methyl-2-{[(3R,6R)-6-methyl-1-{[2-(5-methyl-1,2,4-oxadiazol-3-yl)phenyl]carbonyl}piperidin-3-yl]oxy}pyridine-4-carbonitrile]	0.001	0.012	0.776
Cc1cnn(-c2ccccc2C(=O)N2C[C@H](Oc3nccc(C#N)c3C)CC[C@H]2C)c1 [Example 43, 3-methyl-2-{[(3R,6R)-6-methyl-1-{[2-(4-methyl-1H-pyrazol-1-yl)phenyl]carbonyl}piperidin-3-yl]oxy}pyridine-4-carbonitrile]	0.0009	0.01	0.722
Cc1c(C#N)ccnc1O[C@@H]1CC[C@@H](C)N(C(=O)c2cn(C)nc2-c2ccccc2)C1 [Example 45, 3-methyl-2-({(3R,6R)-6-methyl-1-[(1-methyl-3-phenyl-1H-pyrazol-4-yl)carbonyl]piperidin-3-yl}oxy)pyridine-4-carbonitrile]	0.0127	0.091	4.96
Cc1c(C#N)ccnc1O[C@@H]1CC[C@@H](C)N(C(=O)c2cn(C)nc2-c2nccs2)C1 [Example 46, 3-methyl-2-{[(3R,6R)-6-methyl-1-{[1-methyl-3-(1,3-thiazol-2-yl)-1H-pyrazol-4-yl]carbonyl}piperidin-3-yl]oxy}pyridine-4-carbonitrile]	0.0142	0.111	> 10
Cc1nsc(-c2ccccc2)c1C(=O)N1C[C@H](Oc2nccc(C#N)c2C)CC[C@H]1C [Example 47, 3-methyl-2-({(3R,6R)-6-methyl-1-[(3-methyl-5-phenylisothiazol-4-yl)carbonyl]piperidin-3-yl}oxy)pyridine-4-carbonitrile]	0.0049	0.082	2.36
COc1ccc(-c2ccccc2C(=O)N2C[C@H](Oc3nccc(C#N)c3C)CC[C@H]2C)cn1 [Example 49, 2-{[(3R,6R)-1-{[2-(6-methoxypyridin-3-yl)phenyl]carbonyl}-6-methylpiperidin-3-yl]oxy}-3-methylpyridine-4-carbonitrile]	0.0005	0.015	0.469
Cc1ccc(C(=O)N2C[C@H](Oc3nccc(C#N)c3C)CC[C@H]2C)c(C2CC2)c1 [Example 51, 2-({(3R,6R)-1-[(2-cyclopropyl-4-methylphenyl)carbonyl]-6-methylpiperidin-3-yl}oxy)-3-methylpyridine-4-carbonitrile]	0.0006	0.021	2.1
COc1ccc(C(=O)N2C[C@H](Oc3nccc(C#N)c3C)CC[C@H]2C)c(C2CC2)c1 [Example 52, 2-({(3R,6R)-1-[(2-cyclopropyl-4-methoxyphenyl)carbonyl]-6-methylpiperidin-3-yl}oxy)-3-methylpyridine-4-carbonitrile]	0.0044	0.056	7.03
Cc1c(C#N)ccnc1O[C@@H]1CC[C@@H](C)N(C(=O)c2ccc(F)cc2C2CC2)C1 [Example 53, 2-({(3R,6R)-1-[(2-cyclopropyl-4-fluorophenyl)carbonyl]-6-methylpiperidin-3-yl}oxy)-3-methylpyridine-4-carbonitrile]	0.0016	0.026	5.78
Cc1c(C#N)ccnc1O[C@@H]1CC[C@@H](C)N(C(=O)c2ccc(CO)cc2-c2ccccc2)C1 [Example 54, 2-{[(3R,6R)-1-{[5-(hydroxymethyl)biphenyl-2-yl]carbonyl}-6-methylpiperidin-3-yl]oxy}-3-methylpyridine-4-carbonitrile]	0.0032	0.037	1.39
Cc1c(C#N)ccnc1O[C@@H]1CC[C@@H](C)N(C(=O)c2cc(F)ccc2-c2ccccn2)C1 [Example 56]	0.0014	0.03	2.12
Cc1nc(C(=O)N2C[C@H](Oc3nccc(C#N)c3C)CC[C@H]2C)c(-c2ccccc2)s1 [Example 57, 3-methyl-2-({(3R,6R)-6-methyl-1-[(2-methyl-5-phenyl-1,3-thiazol-4-yl)carbonyl]piperidin-3-yl}oxy)pyridine-4-carbonitrile]	0.0014	0.023	0.521

Reference: US9546152B2 (MERCK SHARP & DOHME CORP., priority 2012, dated 2017)
